From patent US7776790B2 (Platte Chemical Co., priority 2001, dated 2010)

Tests used:
[1] = pKa of the acid herbicide in the formulation, measured; assay type: physicochemical; conditions: 2,4-D acid in PCC-1133; glyphosate acid in PCC-1168
[2] = per approximately 100 grams of an aqueous solution (one weight percent); depending on temperature and pH; cited from earlier work

O=C(O)CNCP(=O)(O)O [glyphosate acid, N-(phosphonomethyl)glycine]
pKa [1]: ~2.5
solubility in water or acidic water [2]: approximately 1 gram

O=C(O)COc1ccc(Cl)cc1Cl [2,4-D acid, 2,4-dichlorophenoxy acetic acid]
pKa [1]: 2.87
